In article PMC4685925, “Exploring architectures displaying multimeric presentations of a trihydroxypiperidine iminosugar” (Beilstein Journal of Organic Chemistry, 2015):

Molecular target: T1, amyloglucosidase (Aspergillus niger, UniProt P69328)
T1 construct: gene GLAA
Assay: commercial glycosidase inhibition assay ([…] inhibition at […]; IC50 determined)
Assay type: biochemical

T1 sequence (P69328 25-640): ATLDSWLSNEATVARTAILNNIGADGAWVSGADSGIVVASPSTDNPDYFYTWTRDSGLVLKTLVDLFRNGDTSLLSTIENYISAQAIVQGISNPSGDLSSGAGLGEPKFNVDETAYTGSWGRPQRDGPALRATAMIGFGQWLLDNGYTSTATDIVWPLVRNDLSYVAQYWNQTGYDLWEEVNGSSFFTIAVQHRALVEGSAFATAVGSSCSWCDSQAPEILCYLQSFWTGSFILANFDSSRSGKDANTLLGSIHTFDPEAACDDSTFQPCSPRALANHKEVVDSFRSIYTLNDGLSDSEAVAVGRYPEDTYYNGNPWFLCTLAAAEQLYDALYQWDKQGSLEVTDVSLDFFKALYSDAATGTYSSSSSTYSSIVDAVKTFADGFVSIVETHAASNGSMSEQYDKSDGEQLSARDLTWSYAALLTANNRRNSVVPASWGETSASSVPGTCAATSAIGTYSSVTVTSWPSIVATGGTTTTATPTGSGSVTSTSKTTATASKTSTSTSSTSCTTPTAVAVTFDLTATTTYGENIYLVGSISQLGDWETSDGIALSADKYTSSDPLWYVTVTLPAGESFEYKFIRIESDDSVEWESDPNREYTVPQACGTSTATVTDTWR

## NCc1cn(CCCN2C[C@@H](O)C(O)[C@H](O)C2)nn1 [compound 15, Deprotected monovalent iminosugar 15]
  IC50: 1.1 mM
